Measured values: US5773444A, “Quinazolines as inhibitors of endothelin converting enzyme” (Warner-Lambert Company, priority 1997, dated 1998)
Counter-ions that a name gives are not always drawn. Like-named read-outs stand apart in the source and are kept apart here. Blank lines part the entries; values can stand above or below the molecule they belong to. Non-standard residues stand in square brackets, D forms with d. Residues, ends and D or L forms follow the SMILES beside them. *: point of attachment. Sta = CC(C)C[C@H](N)[C@@H](O)CC(=O)O; Isovaleryl = CC(C)CC(=O)*

How the values were obtained:
[1] = target: T1, endothelin converting enzyme (ECE) (Homo sapiens, UniProt P42892); assay: ECE assay (partially purified ECE from EA.hy926, ET-1 production by RIA); assay type: biochemical; conditions: for IC50: 10 μM big ET-1, pH 7.0, 1.5 hours at 37° C., 3% DMSO, read-out: IC50 (Table III, Biological Activity of Compounds of the Present Invention)
T1 construct: ECE was partially purified from EA.hy926 grown in 150 roller; endogenous in cells; host or cells: EA.hy926 (human umbilical vein endothelial cells fused with A549); detergent-solubilised membranes, RCA-I lectin eluate

[2] = target: T1, endothelin converting enzyme (ECE); assay: Cell-based assay (ET-1 level in medium of EA.hy926 cells by RIA); conditions: read-out: IC50 (Table IV, cell-based assay)
Description: A permanent human cell line (EA.hy926), derived by fusing human umbilical vein endothelial cells with the permanent human cell line A549 (derived from a human lung carcinoma), was cultured as described, except that the medium also contained HAT supplements (100 μM hypoxanthine, 0.4 μM aminopterin, 16 μM thymidine). Edgell, C.-J. S., McDonald, C. C., and Graham, J. B. (1983) Proc. Natl. Acad. Sci. USA 80, 3734-3737. Cells from passages 40 to 50 were used. Subcultures were prepared by treating confluent cells with trypsin (0.5%) and seeded either onto 24 well plates for a cell-based assay or onto roller bottles for a partial purification of the enzyme.
ET-1 was measured by radioimmunoassay (RIA) as described previously with minor modifications. Ahn, K., Beningo, K., Olds, G., and Hupe, D. (1992) Proc. Nat. Acad. Sci. USA, 89, 8606-8610. Briefly, the RIA mixture (250 μl) contained the antibody against ET-1, an ET-1 sample, and [^125 I] ET-1 (15000 cpm) in buffer D. For the analysis of ET-1 from cell based assays, the final 6% bovine serum albumin was added. […] The amount of immunoreactive (ir) ET-1 was measured by counting the supernatant and determined from the standard curve. […]
EAhy926 cells (0.2-4×10^4) were seeded into 24-plates and cultures as described above. […] The ET-1 level from these samples were measured by RIA previously described. […]

[3] = tested on: neutral endopeptidase 24.11 (NEP 24.11); assay: NEP 24.11 inhibition under ECE assay conditions; assay type: biochemical, human; conditions: 100 μM thiorphan or 100 nM phosphoramidon
Excerpt: The cell line, EA.hy926, contains neutral endopeptidase 24.11 (NEP 24.11) which also cleaves big ET-1 to ET-1 and c-terminal fragment (manuscript submitted). […] All the data were obtained in the linear range of time-course curves.

[4] = tested on: ET-1 production in cultured bovine aortic endothelial cells; conditions: intracellular accumulation of pepstatin; cited from earlier work
[5] = target: T2, endothelin converting enzyme (ECE) (Homo sapiens, UniProt P42892); assay: ECE assay (partially purified ECE from EA.hy926, ET-1 production by RIA); assay type: biochemical; conditions: partially purified ECE from EA.hy926
T2 construct: ECE was partially purified from EA.hy926 grown in 150 roller; endogenous in cells; host or cells: EA.hy926 (human umbilical vein endothelial cells fused with A549); detergent-solubilised membranes, RCA-I lectin eluate
T2 sequence (P42892 whole entry, looked up): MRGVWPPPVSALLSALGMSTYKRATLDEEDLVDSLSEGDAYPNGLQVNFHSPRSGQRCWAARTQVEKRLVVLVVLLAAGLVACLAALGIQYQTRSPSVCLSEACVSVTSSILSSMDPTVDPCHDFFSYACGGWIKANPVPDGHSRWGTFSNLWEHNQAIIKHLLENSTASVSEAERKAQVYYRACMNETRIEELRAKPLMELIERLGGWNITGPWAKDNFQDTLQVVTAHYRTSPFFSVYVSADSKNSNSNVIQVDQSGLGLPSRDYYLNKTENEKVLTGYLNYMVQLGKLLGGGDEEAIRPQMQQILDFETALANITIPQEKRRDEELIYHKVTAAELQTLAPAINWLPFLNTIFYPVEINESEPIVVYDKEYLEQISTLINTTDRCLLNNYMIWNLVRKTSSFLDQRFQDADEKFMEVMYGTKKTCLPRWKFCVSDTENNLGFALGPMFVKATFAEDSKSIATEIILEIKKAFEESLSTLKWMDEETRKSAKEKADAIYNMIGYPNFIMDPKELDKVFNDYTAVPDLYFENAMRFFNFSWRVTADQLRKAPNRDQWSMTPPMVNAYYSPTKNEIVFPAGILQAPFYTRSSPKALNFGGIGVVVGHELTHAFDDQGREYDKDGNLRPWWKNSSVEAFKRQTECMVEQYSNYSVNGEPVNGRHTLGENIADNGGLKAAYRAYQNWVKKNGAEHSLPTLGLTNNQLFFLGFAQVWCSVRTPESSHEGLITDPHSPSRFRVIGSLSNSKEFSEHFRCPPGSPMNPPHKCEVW

[6] = partially purified ECE from EA.hy926

Molecule: CN(C)CCNc1nc(C(Cl)(Cl)Cl)nc2ccc(I)cc12 [Example 8, N-(6-Iodo-2-trichloromethyl-quinazolin-4-yl)-N^1,N^1-dimethyl-ethane-1,2-diamine]
IC50 [1]: 11.1 ± 2.7 µM

Molecule: CCN1CCCC(Nc2nc(C(Cl)(Cl)Cl)nc3ccc(Cl)cc23)C1 (stereo not drawn) [Example 3, (1-Ethyl-piperidin-3-yl)-(6-chloro-2-trichloromethyl-quinazolin-4-yl)-amine]
IC50 [1]: 14.1 ± 1.5 µM
IC50 [2]: 14.4 ± 1.1 µM

Molecule: CCN1CCCC(Nc2nc(C(Cl)(Cl)Cl)nc3ccc(I)cc23)C1 (stereo not drawn) [Example 1, (1-Ethyl-piperidin-3-yl)-(6-iodo-2-trichloromethyl-quinazolin-4-yl)-amine, Monohydrochloride]
IC50 [1]: 4.2 ± 0.5 µM
IC50 [2]: 6.6 ± 1.5 µM

Molecule: CC(=O)N[C@@H](CC(C)C)C(=O)N[C@@H](CC(C)C)C(=O)N[C@H](C=O)CCCNC(=N)N [leupeptin]
inhibition of the enzyme (in words) [1, 6]: not inhibited

Molecule: ClC(Cl)(Cl)c1nc(NCCN2CCOCC2)c2cc(I)ccc2n1 [Example 10, (6-Iodo-2-trichloromethyl-quinazolin-4-yl)-(2-morpholin-4-yl-ethyl)-amine]
IC50 [1]: 25.4 ± 4.2 µM

Molecule: O=C(O)CN(CCN(CC(=O)O)CC(=O)O)CC(=O)O [EDTA]
inhibition of the enzyme (in words) [1]: inhibited

Molecule: NCCNc1nc(C(Cl)(Cl)Cl)nc2ccc(I)cc12 [Example 6, N-(6-Iodo-2-trichloromethyl-quinazolin-4-yl)-ethane-1,2-diamine hydrochloride]
IC50 [1]: 29.6 ± 6 µM

Molecule: ClC(Cl)(Cl)c1nc(NC2CN3CCC2CC3)c2cc(I)ccc2n1 (stereo not drawn) [Example 12, (1 -Aza-bicyclo[2,2,2,]oct-3-yl)-(6-iodo-2-trichloromethyl-quinazolin-4-yl)-amine]
IC50 [1]: 11.1 ± 1.7 µM

Molecule: ClC(Cl)(Cl)c1nc(NCCN2CCCCC2)c2cc(I)ccc2n1 [Example 9]
IC50 [1]: 3.7 ± 1.6 µM

Molecule: c1cnc2c(c1)ccc1cccnc12 [1,10-phenanthroline]
inhibition of the enzyme (in words) [1, 6]: inhibited

Molecule: CNCCNc1nc(C(Cl)(Cl)Cl)nc2ccc(I)cc12 [Example 7, N-(6-Iodo-2-trichloromethyl-quinazolin-4-yl)-N^1-methyl-ethane-1,2-diamine]
IC50 [1]: 22.1 ± 4.8 µM

Molecule: CC(C)CC(=O)N[C@H](C(=O)N[C@H](C(=O)N[C@@H](CC(C)C)[C@@H](O)CC(=O)N[C@@H](C)C(=O)N[C@@H](CC(C)C)[C@@H](O)CC(=O)O)C(C)C)C(C)C [pepstatin A] (Isovaleryl-VV[Sta]A[Sta]-OH)
inhibition of the enzyme (in words) [1, 6]: not inhibited

Molecule: CCN1CCCC(Nc2nc(C(C)(C)C)nc3ccc(I)cc23)C1 (stereo not drawn) [Example 5, (2-tert-Butyl-6-iodo-quinazolin-4-yl)-(1-ethyl-piperidin-3-yl)-amine]
IC50 [1]: 17.6 ± 1.7 µM

Molecule: CCN1CCCC1CNc1nc(C(Cl)(Cl)Cl)nc2ccc(I)cc12 (stereo not drawn) [Example 11, (1-Ethyl-pyrrolidin-2-yl-methyl)-(6-iodo-2-trichloromethyl-quinazolin-4-yl)-amine]
IC50 [1]: 12.4 ± 1 µM

Molecule: CC(C)CC(=O)N[C@H](C(=O)N[C@H](C(=O)N[C@@H](CC(C)C)[C@@H](O)CC(=O)N[C@@H](C)C(=O)N[C@@H](CC(C)C)[C@@H](O)CC(=O)O)C(C)C)C(C)C [pepstatin] (Isovaleryl-VV[Sta]A[Sta]-OH)
inhibition of ET-1 production [4]: did not inhibit ET-1 production

Molecule: O=C(O)CN(CCOCCOCCN(CC(=O)O)CC(=O)O)CC(=O)O [EGTA]
inhibition of the enzyme (in words) [1, 6]: inhibited

Molecule: O=S(=O)(F)Cc1ccccc1 [phenylmethlysulfonyl fluoride]
inhibition of the enzyme (in words) [1, 6]: not inhibited

Molecule: CCN1CCCC(Nc2nc(C(Cl)(Cl)Cl)nc3ccc([N+](=O)[O-])cc23)C1 (stereo not drawn) [Example 4, (1-Ethyl-piperidin-3-yl)-(6-nitro-2-trichloromethyl-quinazolin-4-yl)-amine]
IC50 [1]: 29.1 ± 5.4 µM

Molecule: CCN1CCCC(Nc2nc(-c3ccccc3)nc3ccc(I)cc23)C1 (stereo not drawn) [Example 2, (1-Ethyl-piperidin-3-yl)-(6-iodo-2-phenyl-quinazolin-4-yl)-amine]
IC50 [1]: 9.2 ± 0.8 µM

Continued, values first:

IC50 [1]: 66.6 ± 11.8 µM
Molecule: CC(C)N(CCNc1nc(C(Cl)(Cl)Cl)nc2cc(Cl)ccc12)C(C)C [Example 13, N-(7-Chloro-2-trichloromethyl-quinazolin-4-yl)-N',N'-diisopropyl-ethane-1,2-diamine]

IC50 [1]: 2.3 ± 0.3 µM
Molecule: CCN1CCCC(Nc2nc(C(F)(F)F)nc3ccc(I)cc23)C1 (stereo not drawn) [Example 17, (1-Ethyl-piperidin-3-yl)-(6-iodo-2-trifluoromethyl-quinazolin-4-yl)-amine]

inhibition of the enzyme (in words) [1, 6]: not inhibited
Molecule: CC(C)C[C@H](NC(=O)[C@H]1O[C@@H]1C(=O)O)C(=O)NCCCCN=C(N)N [Example E-64]

inhibition of the enzyme (in words) [1, 6]: not inhibited
Molecule: C[C@H](CS)C(=O)N1CCC[C@H]1C(=O)O [captopril]

IC50 [1]: 75.5 ± 11.6 µM
Molecule: O=C(O)CN1CCCC(Nc2nc(C(Cl)(Cl)Cl)nc3ccc(I)cc23)C1 (stereo not drawn) [Example 14, [3-(6-Iodo-2-trichloromethyl-quinazolin-4-yl-amino)-piperidin-1-yl]-acetic acid potassium salt]

inhibition of the enzyme (in words) [1, 6]: not inhibited
Molecule: C[C@H](N[C@@H](CCc1ccccc1)C(=O)O)C(=O)N1CCC[C@H]1C(=O)O [enalaprilat]

inhibition of the enzyme (in words) [1, 6]: not inhibited
Molecule: CC(C)C[C@H](NC(=O)[C@@H](O)[C@H](N)Cc1ccccc1)C(=O)O [bestatin]

IC50 [1]: 8.4 ± 1.4 µM
Molecule: CN(C)CC(CN(C)C)Nc1nc(C(Cl)(Cl)Cl)nc2ccc(I)cc12 [Example 16, N'-(6-Iodo-2-trichloromethyl-quinazolin-4-yl)-N,N,N",N"-tetramethyl-propane-1,2,3-triamine monohydrochloride]

effect on ECE activity at NEP-blocking concentration ([1]; 100 μM thiorphan or 100 nM phosphoramidon): without affecting the ECE activity
inhibition of the enzyme (in words) [1, 6]: not inhibited
NEP 24.11 inhibition [3]: completely inhibited
Molecule: O=C(O)CNC(=O)C(CS)Cc1ccccc1 (stereo not drawn) [thiorphan]

inhibition of the enzyme (in words) [5]: not inhibited
B1: soybean trypsin inhibitor: soybean trypsin inhibitor (protein, UniProt P01070 25-205, looked up)
Trypsin inhibitor A: DFVLDNEGNPLENGGTYYILSDITAFGGIRAAPTGNERCPLTVVQSRNELDKGIGTIISSPYRIRFIAEGHPLSLKFDSFAVIMLCVGIPTEWSVVEDLPEGPAVKIGENKDAMDGWFRLERVSDDEFNNYKLVFCPQQAEDDKCGDIGISIDHDDGTRRLVVSKNKPLVVQFQKLDKESL
